Paper PMC8704707 (Pharmaceuticals, 2021)
Values after ≈ are worked out from the molar mass of the structure shown. Values joined by “and” are separate entries in the source; they are usually repeats but may differ in a detail not shown here. Equal entries are not always repeated. Where two headings read alike, the source gives them in different places.

Columns and labels:
[1] = tested on: Staphylococcus aureus ATCC 29213; experiment: Antibacterial microdilution broth method (EUCAST); type: cell-based
[2] = tested on: methicillin-resistant Staphylococcus aureus ATCC 43300; experiment: Antibacterial microdilution broth method (EUCAST); type: cell-based; details: ATCC 43300 / MRSA
[3] = tested on: Staphylococcus epidermidis ATCC 12228; experiment: Antibacterial microdilution broth method (EUCAST); type: cell-based
[4] = tested on: Enterococcus faecalis ATCC 29212; experiment: Antibacterial microdilution broth method (EUCAST); type: cell-based
[5] = tested on: Escherichia coli ATCC 25922; experiment: Antibacterial microdilution broth method (EUCAST); type: cell-based
[6] = tested on: Acinetobacter baumannii ATCC 19606; experiment: Antibacterial microdilution broth method (EUCAST); type: cell-based
[7] = tested on: Pseudomonas aeruginosa ATCC 27853; experiment: Antibacterial microdilution broth method (EUCAST); type: cell-based
[8] = tested on: Candida albicans ATCC 24443; experiment: microbe, parasite or virus in culture; type: cell-based
[9] = tested on: Candida krusei ATCC 6258; experiment: microbe, parasite or virus in culture; type: cell-based; details: Pichia kudriavzevii
[10] = tested on: Candida parapsilosis ATCC 22019; experiment: microbe, parasite or virus in culture; type: cell-based; details: Lodderomyces parapsilosis
[11] = tested on: Candida tropicalis ATCC 750; experiment: microbe, parasite or virus in culture; type: cell-based
[12] = tested on: Trichophyton interdigitale ATCC 9533; experiment: microbe, parasite or virus in culture; type: cell-based
[13] = target: AChE from electric eel (EeAChE) (Electrophorus electricus, UniProt O42275); experiment: biochemical; type: biochemical; details: for IC50: mean ± SD, n = three independent experiments, ATCh 40 µM, read-out: IC50 AChE
[14] = target: BuChE from equine serum (EqBuChE) (Equus caballus, UniProt P81908); experiment: biochemical; details: mean ± SD, n = three independent experiments; BTCh 40 µM; read-out: IC50 BuChE
[15] = tested on: Klebsiella pneumoniae ATCC 10031; details: for MIC KP 24 h: 24 h incubation; for MIC KP 48 h: 48 h incubation
[16] = tested on: eight human pathogenic fungi; experiment: Antifungal microdilution broth method, whole panel; type: cell-based; details: not reported in Table 2, read-out: MIC, all fungal strains tested
[17] = ATCC29213, 24 h, read-out: MIC SA 24 h
[18] = ATCC29213, 48 h, read-out: MIC SA 48 h
[19] = ATCC12228, 24 h, read-out: MIC SE 24 h
[20] = ATCC12228, 48 h, read-out: MIC SE 48 h
[21] = ATCC29212, 24 h, read-out: MIC EF 24 h
[22] = ATCC29212, 48 h, read-out: MIC EF 48 h
[23] = ATCC25922, 24 h, read-out: MIC EC 24 h
[24] = ATCC25922, 48 h, read-out: MIC EC 48 h
[25] = ATCC19606, 24 h, read-out: MIC ACI 24 h
[26] = ATCC19606, 48 h, read-out: MIC ACI 48 h
[27] = ATCC27853, 24 h, read-out: MIC PA 24 h
[28] = ATCC27853, 48 h, read-out: MIC PA 48 h
[29] = ATCC24443, 24 h, read-out: MIC CA 24 h
[30] = ATCC24443, 48 h, read-out: MIC CA 48 h
[31] = ATCC6258, 24 h, read-out: MIC CK 24 h
[32] = ATCC6258, 48 h, read-out: MIC CK 48 h
[33] = ATCC22019, 24 h, read-out: MIC CP 24 h
[34] = ATCC22019, 48 h, read-out: MIC CP 48 h
[35] = ATCC750, 24 h, read-out: MIC CT 24 h
[36] = ATCC750, 48 h, read-out: MIC CT 48 h
[37] = ATCC9533, 72 h, read-out: MIC TI 72 h
[38] = ATCC9533, 120 h, read-out: MIC TI 120 h

BuChE from equine serum (EqBuChE), sequence (P81908 whole entry): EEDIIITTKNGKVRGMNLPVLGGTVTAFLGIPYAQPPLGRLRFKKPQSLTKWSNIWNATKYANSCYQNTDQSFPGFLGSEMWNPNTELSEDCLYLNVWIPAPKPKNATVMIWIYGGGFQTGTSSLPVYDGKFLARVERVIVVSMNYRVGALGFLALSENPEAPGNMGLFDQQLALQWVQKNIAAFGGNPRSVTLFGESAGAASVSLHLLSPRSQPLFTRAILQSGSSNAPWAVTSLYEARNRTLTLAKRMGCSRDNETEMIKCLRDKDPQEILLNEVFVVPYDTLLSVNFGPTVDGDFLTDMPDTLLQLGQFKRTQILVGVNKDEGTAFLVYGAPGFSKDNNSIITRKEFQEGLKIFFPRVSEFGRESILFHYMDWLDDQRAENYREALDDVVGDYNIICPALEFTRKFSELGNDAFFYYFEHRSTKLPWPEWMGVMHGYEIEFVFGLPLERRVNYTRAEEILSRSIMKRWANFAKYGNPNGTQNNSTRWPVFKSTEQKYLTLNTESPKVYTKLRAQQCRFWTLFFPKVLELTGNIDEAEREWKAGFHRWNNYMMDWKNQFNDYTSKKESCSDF
AChE from electric eel (EeAChE), sequence (O42275 24-633): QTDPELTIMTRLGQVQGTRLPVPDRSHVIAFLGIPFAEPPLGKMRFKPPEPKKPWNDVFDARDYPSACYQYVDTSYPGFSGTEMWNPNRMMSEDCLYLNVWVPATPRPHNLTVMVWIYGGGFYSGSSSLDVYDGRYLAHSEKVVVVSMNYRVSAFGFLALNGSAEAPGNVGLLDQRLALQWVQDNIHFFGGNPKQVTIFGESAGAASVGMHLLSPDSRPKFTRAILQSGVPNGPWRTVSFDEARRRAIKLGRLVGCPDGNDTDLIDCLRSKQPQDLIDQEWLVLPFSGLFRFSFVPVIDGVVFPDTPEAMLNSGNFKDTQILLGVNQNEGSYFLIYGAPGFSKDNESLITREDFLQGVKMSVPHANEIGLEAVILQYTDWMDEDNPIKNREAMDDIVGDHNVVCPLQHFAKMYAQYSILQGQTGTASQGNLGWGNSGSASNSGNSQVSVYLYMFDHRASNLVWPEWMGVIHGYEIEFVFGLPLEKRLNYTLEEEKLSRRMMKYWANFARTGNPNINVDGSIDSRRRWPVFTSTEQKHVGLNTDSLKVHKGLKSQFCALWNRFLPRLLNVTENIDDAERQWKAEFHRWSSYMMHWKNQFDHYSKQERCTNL

Structure (SMILES)	MIC [1, 17]	MIC [1, 18]	MIC ([2]; 24 h, read-out: MIC MRSA 24 h)	MIC ([2]; 48 h, read-out: MIC MRSA 48 h)	MIC [3, 19]	MIC [3, 20]	MIC [4, 21]	MIC [4, 22]	MIC [5, 23]	MIC [5, 24]	MIC [6, 25]	MIC [6, 26]	MIC [7, 27]	MIC [7, 28]	MIC [8, 29]	Selectivity AChE/BuChE [13]	IC50 [13]	IC50 [14]	MIC KP 24 h [15]	MIC KP 48 h [15]	also measured
[H]/N=C(\N)NN=Cc1ccc([N+](=O)[O-])s1 [Compound 1o, (E)-2-[(5-Nitrothiophen-2-yl)methylene]hydrazine-1-carboximidamide]	125 µM (≈ 26.7 µg/mL)	250 µM (≈ 53.3 µg/mL)	125 µM (≈ 26.7 µg/mL)	250 µM (≈ 53.3 µg/mL)	62.5 µM (≈ 13.3 µg/mL)	62.5 µM (≈ 13.3 µg/mL)	250 µM (≈ 53.3 µg/mL)	500 µM (≈ 107 µg/mL)	62.5 µM (≈ 13.3 µg/mL)	62.5 µM (≈ 13.3 µg/mL)	125 µM (≈ 26.7 µg/mL)	125 µM (≈ 26.7 µg/mL)	500 µM (≈ 107 µg/mL)	500 µM (≈ 107 µg/mL)	> 500 µM	0.11	31.7 ± 1.34 µM	204 to 286 µM and 286 µM	125 µM (≈ 26.7 µg/mL)	125 µM (≈ 26.7 µg/mL)	MIC [8, 30]: > 500 µM; MIC [9, 31]: 500 µM (≈ 107 µg/mL); MIC [9, 32]: 500 µM (≈ 107 µg/mL); MIC [10, 33]: > 500 µM; MIC [10, 34]: > 500 µM; MIC [11, 35]: > 500 µM; MIC [11, 36]: > 500 µM; MIC [12, 37]: 250 µM (≈ 53.3 µg/mL); MIC [12, 38]: 250 µM (≈ 53.3 µg/mL)
[H]/N=C(\N)NN=Cc1cc(Cl)cc(Br)c1O [Compound 1k, (E)-2-(3-Bromo-5-chloro-2-hydroxybenzylidene)hydrazine-1-carboximidamide]	250 µM (≈ 72.9 µg/mL)	250 µM (≈ 72.9 µg/mL)	250 µM (≈ 72.9 µg/mL)	250 µM (≈ 72.9 µg/mL)	125 µM (≈ 36.4 µg/mL)	250 µM (≈ 72.9 µg/mL)	500 µM (≈ 146 µg/mL)	500 µM (≈ 146 µg/mL)	500 µM (≈ 146 µg/mL)	500 µM (≈ 146 µg/mL)	> 500 µM	> 500 µM	> 500 µM	> 500 µM	250 µM (≈ 72.9 µg/mL)	1.92	22.4 ± 0.67 µM	< 20 µM and 11.7 µM	250 µM (≈ 72.9 µg/mL)	250 µM (≈ 72.9 µg/mL)	MIC [8, 30]: 500 µM (≈ 146 µg/mL); MIC [9, 31]: 500 µM (≈ 146 µg/mL); MIC [9, 32]: 500 µM (≈ 146 µg/mL); MIC [10, 33]: 500 µM (≈ 146 µg/mL); MIC [10, 34]: 500 µM (≈ 146 µg/mL); MIC [11, 35]: 500 µM (≈ 146 µg/mL); MIC [11, 36]: 500 µM (≈ 146 µg/mL); MIC [12, 37]: 125 µM (≈ 36.4 µg/mL); MIC [12, 38]: 250 µM (≈ 72.9 µg/mL)
NC(=O)N/N=C/c1cc(I)cc(I)c1O [Compound 2h, (E)-2-(2-Hydroxy-3,5-diiodobenzylidene)hydrazine-1-carboxamide]	250 µM (≈ 108 µg/mL)	250 µM (≈ 108 µg/mL)	500 µM (≈ 215 µg/mL)	500 µM (≈ 215 µg/mL)	125 µM (≈ 53.9 µg/mL)	125 µM (≈ 53.9 µg/mL)	> 500 µM	> 500 µM	> 500 µM	> 500 µM	> 500 µM	> 500 µM	> 500 µM	> 500 µM		0.88	30.7 ± 0.33 µM	34.7 ± 0.35 µM	>500 µM	>500 µM	MIC [16]: ≥ 500 µM
[H]/N=C(\N)NN=Cc1cc(I)ccc1O [Compound 1i, (E)-2-(2-Hydroxy-5-iodobenzylidene)hydrazine-1-carboximidamide]	125 µM (≈ 38 µg/mL)	125 µM (≈ 38 µg/mL)	125 µM (≈ 38 µg/mL)	125 µM (≈ 38 µg/mL)	250 µM (≈ 76 µg/mL)	250 µM (≈ 76 µg/mL)	500 µM (≈ 152 µg/mL)	500 µM (≈ 152 µg/mL)	250 µM (≈ 76 µg/mL)	250 µM (≈ 76 µg/mL)	500 µM (≈ 152 µg/mL)	500 µM (≈ 152 µg/mL)	500 µM (≈ 152 µg/mL)	500 µM (≈ 152 µg/mL)	500 µM (≈ 152 µg/mL)	1.27	25 ± 0.5 µM	< 20 µM and 19.8 µM	250 µM (≈ 76 µg/mL)	250 µM (≈ 76 µg/mL)	MIC [8, 30]: 500 µM (≈ 152 µg/mL); MIC [9, 31]: 250 µM (≈ 76 µg/mL); MIC [9, 32]: 250 µM (≈ 76 µg/mL); MIC [10, 33]: 250 µM (≈ 76 µg/mL); MIC [10, 34]: 250 µM (≈ 76 µg/mL); MIC [11, 35]: 500 µM (≈ 152 µg/mL); MIC [11, 36]: 500 µM (≈ 152 µg/mL); MIC [12, 37]: 62.5 µM (≈ 19 µg/mL); MIC [12, 38]: 125 µM (≈ 38 µg/mL)
